Test system: MCF-7 breast cancer cells
Test: Microarray gene expression analysis (Agilent whole human genome 4 x 44K; compound vs DMSO, LIMMA log2 fold change)
Format: cell-based

Oc1cccc(-c2nc(N3CCOCC3)c3oc4ncccc4c3n2)c1 [PI-103]
PRNP log2FC: 0.095
log2FC: 0.10
AARS log2FC (Apoptosis genes, Gene 16): -0.158
ABL1 log2FC (Apoptosis genes, Gene 25): -0.144
ABR log2FC (Apoptosis genes, Gene 29): -0.279
ACTN4 log2FC (Apoptosis genes, Gene 81): -0.244
ACTN1 log2FC (Apoptosis genes, Gene 87): -0.457
ACTN2 log2FC (Apoptosis genes, Gene 88): 0.074
ACTN3 log2FC (Apoptosis genes, Gene 89): -0.703
ACVR1 log2FC (Apoptosis genes, Gene 90): 0.552
ACVR1B log2FC (Apoptosis genes, Gene 91): -0.214
ADA log2FC (Apoptosis genes, Gene 100): -0.093
ADAM8 log2FC (Apoptosis genes, Gene 101): -0.513
ADAR log2FC (Apoptosis genes, Gene 103): -0.239
ADCYAP1 log2FC (Apoptosis genes, Gene 116): 0.042
ADD1 log2FC (Apoptosis genes, Gene 118): -0.173
ADM log2FC (Apoptosis genes, Gene 133): -0.875
ADORA1 log2FC (Apoptosis genes, Gene 134): -1.870
ADORA2A log2FC (Apoptosis genes, Gene 135): -0.109
ADRB1 log2FC (Apoptosis genes, Gene 153): -0.133
AES log2FC (Apoptosis genes, Gene 166): -0.056
AGT log2FC (Apoptosis genes, Gene 183): -0.084
AHR log2FC (Apoptosis genes, Gene 196): 0.783
AKT1 log2FC (Apoptosis genes, Gene 207): -0.579
AKT2 log2FC (Apoptosis genes, Gene 208): -0.406
ALDH1A3 log2FC (Apoptosis genes, Gene 220): -0.150
ALDOC log2FC (Apoptosis genes, Gene 230): 0.017
ALK log2FC (Apoptosis genes, Gene 238): 0.007
ALOX15B log2FC (Apoptosis genes, Gene 247): -0.00234
ANGPT1 log2FC (Apoptosis genes, Gene 284): -0.412
SLC25A4 log2FC (Apoptosis genes, Gene 291): -0.414
SLC25A5 log2FC (Apoptosis genes, Gene 292): -0.037
ANXA1 log2FC (Apoptosis genes, Gene 301): 0.803
ANXA4 log2FC (Apoptosis genes, Gene 307): 0.480
ANXA5 log2FC (Apoptosis genes, Gene 308): 0.167
APAF1 log2FC (Apoptosis genes, Gene 317): 0.575
NUDT2 log2FC (Apoptosis genes, Gene 318): 0.219
APBB2 log2FC (Apoptosis genes, Gene 323): -0.180
APC log2FC (Apoptosis genes, Gene 324): 0.150
BIRC3 log2FC (Apoptosis genes, Gene 330): -0.884
BIRC5 log2FC (Apoptosis genes, Gene 332): 0.037
APLP1 log2FC (Apoptosis genes, Gene 333): -0.057
APOE log2FC (Apoptosis genes, Gene 348): 0.390
APP log2FC (Apoptosis genes, Gene 351): 0.331
FASLG log2FC (Apoptosis genes, Gene 356): -0.231
AQP2 log2FC (Apoptosis genes, Gene 359): -0.010
AR log2FC (Apoptosis genes, Gene 367): 0.287
ARAF log2FC (Apoptosis genes, Gene 369): -0.336
ARF6 log2FC (Apoptosis genes, Gene 382): -0.566
RHOB log2FC (Apoptosis genes, Gene 388): -0.099
ARHGAP4 log2FC (Apoptosis genes, Gene 393): 0.173
ARHGDIA log2FC (Apoptosis genes, Gene 396): -0.904
ARRB2 log2FC (Apoptosis genes, Gene 409): 0.444
ASCL1 log2FC (Apoptosis genes, Gene 429): -0.053
ASNS log2FC (Apoptosis genes, Gene 440): -0.385
ATF4 log2FC (Apoptosis genes, Gene 468): -0.201
ATM log2FC (Apoptosis genes, Gene 472): 0.013
ATP2A1 log2FC (Apoptosis genes, Gene 487): -0.025
AVP log2FC (Apoptosis genes, Gene 551): -0.317
AXL log2FC (Apoptosis genes, Gene 558): 0.362
AZU1 log2FC (Apoptosis genes, Gene 566): 0.048
BAD log2FC (Apoptosis genes, Gene 572): 0.529
BAG1 log2FC (Apoptosis genes, Gene 573): 1.113
BAK1 log2FC (Apoptosis genes, Gene 578): -0.383
BARD1 log2FC (Apoptosis genes, Gene 580): 0.336
BAX log2FC (Apoptosis genes, Gene 581): -0.146
BCL2 log2FC (Apoptosis genes, Gene 596): -0.342
BCL2A1 log2FC (Apoptosis genes, Gene 597): -0.041
BCL2L1 log2FC (Apoptosis genes, Gene 598): -0.919
BCL2L2 log2FC (Apoptosis genes, Gene 599): 0.313
BCL3 log2FC (Apoptosis genes, Gene 602): -1.077
BCL6 log2FC (Apoptosis genes, Gene 604): 1.197
BDNF log2FC (Apoptosis genes, Gene 627): -0.180
BID log2FC (Apoptosis genes, Gene 637): -0.261
BIK log2FC (Apoptosis genes, Gene 638): -0.571
BLM log2FC (Apoptosis genes, Gene 641): 0.071
BMP4 log2FC (Apoptosis genes, Gene 652): 0.224
BMP7 log2FC (Apoptosis genes, Gene 655): -0.324
BMPR1B log2FC (Apoptosis genes, Gene 658): -0.150
BMX log2FC (Apoptosis genes, Gene 660): 0.041
BNIP1 log2FC (Apoptosis genes, Gene 662): 0.320
BNIP2 log2FC (Apoptosis genes, Gene 663): 0.429
BNIP3 log2FC (Apoptosis genes, Gene 664): 0.757
BNIP3L log2FC (Apoptosis genes, Gene 665): 1.132
FOXL2 log2FC (Apoptosis genes, Gene 668): -0.465
BRCA1 log2FC (Apoptosis genes, Gene 672): 0.741
BRAF log2FC (Apoptosis genes, Gene 673): 0.018
BRCA2 log2FC (Apoptosis genes, Gene 675): 0.100
BTC log2FC (Apoptosis genes, Gene 685): 0.236
BTG1 log2FC (Apoptosis genes, Gene 694): 1.197
BUB1 log2FC (Apoptosis genes, Gene 699): 0.591
BUB1B log2FC (Apoptosis genes, Gene 701): 0.146
TSPO log2FC (Apoptosis genes, Gene 706): 0.105
C5AR1 log2FC (Apoptosis genes, Gene 728): 0.079
CACNA1A log2FC (Apoptosis genes, Gene 773): -0.069
CALR log2FC (Apoptosis genes, Gene 811): -0.161
CAMK2B log2FC (Apoptosis genes, Gene 816): 0.010
CAST log2FC (Apoptosis genes, Gene 831): 0.459
CASP1 log2FC (Apoptosis genes, Gene 834): 0.025
CASP2 log2FC (Apoptosis genes, Gene 835): -0.763
CASP3 log2FC (Apoptosis genes, Gene 836): 0.305
CASP4 log2FC (Apoptosis genes, Gene 837): 0.021
CASP5 log2FC (Apoptosis genes, Gene 838): -0.191
CASP6 log2FC (Apoptosis genes, Gene 839): 0.478
CASP7 log2FC (Apoptosis genes, Gene 840): -0.335
CASP8 log2FC (Apoptosis genes, Gene 841): 0.045
CASP9 log2FC (Apoptosis genes, Gene 842): 0.133
CASR log2FC (Apoptosis genes, Gene 846): 0.046
CAT log2FC (Apoptosis genes, Gene 847): 0.456
CAV1 log2FC (Apoptosis genes, Gene 857): 0.357
RUNX3 log2FC (Apoptosis genes, Gene 864): -0.359
CBL log2FC (Apoptosis genes, Gene 867): 0.455
CBS log2FC (Apoptosis genes, Gene 875): -0.393
KRIT1 log2FC (Apoptosis genes, Gene 889): 0.580
CCNG1 log2FC (Apoptosis genes, Gene 900): 0.460
CD2 log2FC (Apoptosis genes, Gene 914): -0.198
CD3E log2FC (Apoptosis genes, Gene 916): -0.245
CD3G log2FC (Apoptosis genes, Gene 917): -0.217
CD5 log2FC (Apoptosis genes, Gene 921): 0.023
CD5L log2FC (Apoptosis genes, Gene 922): -0.081
CD14 log2FC (Apoptosis genes, Gene 929): -0.379
CD28 log2FC (Apoptosis genes, Gene 940): 0.036
CD40 log2FC (Apoptosis genes, Gene 958): -0.612
CD44 log2FC (Apoptosis genes, Gene 960): -0.262
CD59 log2FC (Apoptosis genes, Gene 966): -0.006
CD74 log2FC (Apoptosis genes, Gene 972): 0.013
CDC34 log2FC (Apoptosis genes, Gene 997): 0.509
CDC42 log2FC (Apoptosis genes, Gene 998): 0.080
CDK4 log2FC (Apoptosis genes, Gene 1019): 0.170
CDKN1A log2FC (Apoptosis genes, Gene 1026): -1.229
CDKN1B log2FC (Apoptosis genes, Gene 1027): 1.116
CDKN2A log2FC (Apoptosis genes, Gene 1029): 0.303
CDKN2D log2FC (Apoptosis genes, Gene 1032): 0.903
CEBPB log2FC (Apoptosis genes, Gene 1051): -0.197
CFL1 log2FC (Apoptosis genes, Gene 1072): -0.246
CTSC log2FC (Apoptosis genes, Gene 1075): -0.333
CGB log2FC (Apoptosis genes, Gene 1082): -0.180
CLU log2FC (Apoptosis genes, Gene 1191): 0.052
CLN3 log2FC (Apoptosis genes, Gene 1201): -0.046
CCR7 log2FC (Apoptosis genes, Gene 1236): 0.113
PLK3 log2FC (Apoptosis genes, Gene 1263): -1.591
CNR1 log2FC (Apoptosis genes, Gene 1268): 0.471
ATF2 log2FC (Apoptosis genes, Gene 1386): 0.878
CRH log2FC (Apoptosis genes, Gene 1392): 0.059
CRIP1 log2FC (Apoptosis genes, Gene 1396): 0.723
CRYAA log2FC (Apoptosis genes, Gene 1409): -0.050
CRYAB log2FC (Apoptosis genes, Gene 1410): -0.029
MAPK14 log2FC (Apoptosis genes, Gene 1432): -0.303
CSE1L log2FC (Apoptosis genes, Gene 1434): 0.551
CSF2 log2FC (Apoptosis genes, Gene 1437): -0.616
CSNK2A1 log2FC (Apoptosis genes, Gene 1457): -0.647
CSNK2A2 log2FC (Apoptosis genes, Gene 1459): 0.329
CSTB log2FC (Apoptosis genes, Gene 1476): 0.261
NKX2-5 log2FC (Apoptosis genes, Gene 1482): -0.572
CTGF log2FC (Apoptosis genes, Gene 1490): -0.354
CTH log2FC (Apoptosis genes, Gene 1491): 0.722

Source: publication PMC4303209, “A novel phosphatidylinositol 3-kinase (PI3K) inhibitor directs a potent FOXO-dependent, p53-independent cell cycle arrest phenotype characterized by the differential induction of a subset of FOXO-regulated genes” (Breast Cancer Research : BCR, 2014)
